Patent EP1114151B1, “G PROTEIN-COUPLED RECEPTOR ANTAGONISTS” (Hopital Sainte-Justine, priority 1998, dated 2011)

Tested on: FP receptor
Assay: porcine eyecup model of ex vivo vasomotricity assay, PGF2α-induced constriction of retinal microvessels
Text: In order to see if the peptides could inhibit FP function using an ex vivo model, we chose porcine eyecup model, an ex vivo assay of vascular constriction in porcine retinas which we previously described and validated (Li et al., 1996 J. Pharmacol. Expt. Therapeut. 278: 370-377; Li et al., 1997 Am. J. Physiol. 273: R1283-90; Abran et al., 1997 Am. J. Physiol. 272: R995-1001). Since FP receptor densities in newborn vasculature are minimal due to down regulation by high levels of circulating prostaglandins in the perinatal period, the newborn pigs were treated with a prostaglandin synthetase blocker, ibuprofen (30 mg/Kg of bodyweight/ 8 h for 24 h) to increase the density of the receptors as well as their vasomotor effects. By inhibiting circulating prostaglandins; we were able to show potent inhibition of FP receptor-mediated second messenger synthesis as well as FP-mediated vascular constriction in this eyecup model.
The preparations were allowed to stabilize for 30 min.
Vascular diameter was recorded before and 10 min following the topical application of the agent.
Small letters indicate L-amino acids and capital letters indicate D- amino acids. I = isoleucine; L= leucine; G =glycine; H=histidine, R=Arginine; D=Aspartic acid; Y=Tyrosine; […]; A-Alanine; W= Tryptophan; E-Glutamic acid; F= Phenyl alanine; Q=Glutamine; N=Aspargine; P=Proline; S=Serine; X=Cyclohexyl alanine.

%Vasomotor response (of constriction) (100 µM peptide added 30 min before 10^-7 M PGF2α, relative to maximal constriction in the absence of peptide): 36.9%
% inhibition of maximal max. response (100 µM peptide, 10^-7 M PGF2α, calculated as 100 - per cent vasomotor response): 63.1%
Sequence: ILGHKDYK [PCP-13.13, R to K variant of PCP-13]
change of inhibitory activity relative to the parent peptide (in words) (peptides at 100 µM, compared with PCP-13 (PCP-13 and PCP-11 with PCP-8, PCP-12 with PCP-10)): affected the activity of PCP-13 moderately
